# Experiment: Anticancer human tumor 997537-175-T-J1-PDC patient-derived colon adenocarcinoma cell line growth inhibition [POLQ]
# Settings: 997537-175-T-J1-PDC complex spheroid viability, combination with POLQ inhibitors; second compound 0.0316 µM; first compound 3.16 µM; stronger effect = lower value
# How it was run: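 Growth inhibition in 3D: complex spheroids (tumor PDC, HUVEC, MSC) treated with POLQ inhibitor combinations; where Cmax unknown, highest tested concentration 10 microM, except SN-38 at 1 microM.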
# 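Also: luminescence signal used as a surrogate for viable cells; spheroids exposed to drugs for seven days before readout.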
row,SMILES,"viability, T/C [%]"
1,O=c1[nH]cc(F)c(=O)[nH]1 + COC1C(OC(N)=O)C(O)C(Oc2ccc3c(O)c(NC(=O)c4ccc(O)c(CC=C(C)C)c4)c(=O)oc3c2C)OC1(C)C,78.7
2,O=c1[nH]cc(F)c(=O)[nH]1 + Nc1ccc(C#CCN(C(=O)Cc2ncc(C(F)(F)F)cc2C(F)(F)F)c2ccc(F)cc2)nn1,95.7
3,COc1ccc([C@@H](O)c2cc(-c3ncnc4cc(N5CCOCC5)ccc34)c(F)cc2Cl)nn1 + Cc1cccc(N(C)C(=O)C2C(O)CCN2c2nc(C)cc(C(F)(F)F)c2C#N)c1,101

# Same assay, conditions: 997537-175-T-J1-PDC complex spheroid viability, combination with POLQ inhibitors; second compound 0.0316 µM; first compound 10 µM; stronger effect = lower value
row,SMILES,"viability, T/C [%]"
1,Nc1ccn(C2OC(CO)C(O)C2(F)F)c(=O)n1 (stereo unspecified) + Nc1ccc(C#CCN(C(=O)Cc2ncc(C(F)(F)F)cc2C(F)(F)F)c2ccc(F)cc2)nn1,72.5
2,CCCS(=O)(=O)Nc1ccc(F)c(C(=O)c2c[nH]c3ncc(-c4ccc(Cl)cc4)cc23)c1F + Nc1ccc(C#CCN(C(=O)Cc2ncc(C(F)(F)F)cc2C(F)(F)F)c2ccc(F)cc2)nn1,27.2
3,O=c1[nH]cc(F)c(=O)[nH]1 + COC1C(OC(N)=O)C(O)C(Oc2ccc3c(O)c(NC(=O)c4ccc(O)c(CC=C(C)C)c4)c(=O)oc3c2C)OC1(C)C,76.2
4,O=c1[nH]cc(F)c(=O)[nH]1 + Nc1ccc(C#CCN(C(=O)Cc2ncc(C(F)(F)F)cc2C(F)(F)F)c2ccc(F)cc2)nn1,79
5,COc1ccc([C@@H](O)c2cc(-c3ncnc4cc(N5CCOCC5)ccc34)c(F)cc2Cl)nn1 + Cc1cccc(N(C)C(=O)C2C(O)CCN2c2nc(C)cc(C(F)(F)F)c2C#N)c1,84.3

# Same assay, conditions: 997537-175-T-J1-PDC complex spheroid viability, combination with POLQ inhibitors; second compound 0.1 µM; first compound 0.0316 µM; stronger effect = lower value
row,SMILES,"viability, T/C [%]"
1,Nc1ccn(C2OC(CO)C(O)C2(F)F)c(=O)n1 (stereo unspecified) + Nc1ccc(C#CCN(C(=O)Cc2ncc(C(F)(F)F)cc2C(F)(F)F)c2ccc(F)cc2)nn1,109
2,CCCS(=O)(=O)Nc1ccc(F)c(C(=O)c2c[nH]c3ncc(-c4ccc(Cl)cc4)cc23)c1F + Nc1ccc(C#CCN(C(=O)Cc2ncc(C(F)(F)F)cc2C(F)(F)F)c2ccc(F)cc2)nn1,101
3,O=c1[nH]cc(F)c(=O)[nH]1 + COC1C(OC(N)=O)C(O)C(Oc2ccc3c(O)c(NC(=O)c4ccc(O)c(CC=C(C)C)c4)c(=O)oc3c2C)OC1(C)C,86.3
4,O=c1[nH]cc(F)c(=O)[nH]1 + Nc1ccc(C#CCN(C(=O)Cc2ncc(C(F)(F)F)cc2C(F)(F)F)c2ccc(F)cc2)nn1,106
5,COc1ccc([C@@H](O)c2cc(-c3ncnc4cc(N5CCOCC5)ccc34)c(F)cc2Cl)nn1 + Cc1cccc(N(C)C(=O)C2C(O)CCN2c2nc(C)cc(C(F)(F)F)c2C#N)c1,92.3

# Same assay, conditions: 997537-175-T-J1-PDC complex spheroid viability, combination with POLQ inhibitors; second compound 0.1 µM; first compound 0.1 µM; stronger effect = lower value
row,SMILES,"viability, T/C [%]"
1,Nc1ccn(C2OC(CO)C(O)C2(F)F)c(=O)n1 (stereo unspecified) + Nc1ccc(C#CCN(C(=O)Cc2ncc(C(F)(F)F)cc2C(F)(F)F)c2ccc(F)cc2)nn1,108
2,CCCS(=O)(=O)Nc1ccc(F)c(C(=O)c2c[nH]c3ncc(-c4ccc(Cl)cc4)cc23)c1F + Nc1ccc(C#CCN(C(=O)Cc2ncc(C(F)(F)F)cc2C(F)(F)F)c2ccc(F)cc2)nn1,86.5
3,O=c1[nH]cc(F)c(=O)[nH]1 + COC1C(OC(N)=O)C(O)C(Oc2ccc3c(O)c(NC(=O)c4ccc(O)c(CC=C(C)C)c4)c(=O)oc3c2C)OC1(C)C,104
4,O=c1[nH]cc(F)c(=O)[nH]1 + Nc1ccc(C#CCN(C(=O)Cc2ncc(C(F)(F)F)cc2C(F)(F)F)c2ccc(F)cc2)nn1,99.8
5,COc1ccc([C@@H](O)c2cc(-c3ncnc4cc(N5CCOCC5)ccc34)c(F)cc2Cl)nn1 + Cc1cccc(N(C)C(=O)C2C(O)CCN2c2nc(C)cc(C(F)(F)F)c2C#N)c1,111

# Same assay, conditions: 997537-175-T-J1-PDC complex spheroid viability, combination with POLQ inhibitors; second compound 0.1 µM; first compound 0.316 µM; stronger effect = lower value
row,SMILES,"viability, T/C [%]"
1,Nc1ccn(C2OC(CO)C(O)C2(F)F)c(=O)n1 (stereo unspecified) + Nc1ccc(C#CCN(C(=O)Cc2ncc(C(F)(F)F)cc2C(F)(F)F)c2ccc(F)cc2)nn1,101
2,CCCS(=O)(=O)Nc1ccc(F)c(C(=O)c2c[nH]c3ncc(-c4ccc(Cl)cc4)cc23)c1F + Nc1ccc(C#CCN(C(=O)Cc2ncc(C(F)(F)F)cc2C(F)(F)F)c2ccc(F)cc2)nn1,80.9
3,O=c1[nH]cc(F)c(=O)[nH]1 + COC1C(OC(N)=O)C(O)C(Oc2ccc3c(O)c(NC(=O)c4ccc(O)c(CC=C(C)C)c4)c(=O)oc3c2C)OC1(C)C,104
4,O=c1[nH]cc(F)c(=O)[nH]1 + Nc1ccc(C#CCN(C(=O)Cc2ncc(C(F)(F)F)cc2C(F)(F)F)c2ccc(F)cc2)nn1,95.9
5,COc1ccc([C@@H](O)c2cc(-c3ncnc4cc(N5CCOCC5)ccc34)c(F)cc2Cl)nn1 + Cc1cccc(N(C)C(=O)C2C(O)CCN2c2nc(C)cc(C(F)(F)F)c2C#N)c1,99.8

# Same assay, conditions: 997537-175-T-J1-PDC complex spheroid viability, combination with POLQ inhibitors; second compound 0.1 µM; first compound 1 µM; stronger effect = lower value
row,SMILES,"viability, T/C [%]"
1,Nc1ccn(C2OC(CO)C(O)C2(F)F)c(=O)n1 (stereo unspecified) + Nc1ccc(C#CCN(C(=O)Cc2ncc(C(F)(F)F)cc2C(F)(F)F)c2ccc(F)cc2)nn1,68.2
2,CCCS(=O)(=O)Nc1ccc(F)c(C(=O)c2c[nH]c3ncc(-c4ccc(Cl)cc4)cc23)c1F + Nc1ccc(C#CCN(C(=O)Cc2ncc(C(F)(F)F)cc2C(F)(F)F)c2ccc(F)cc2)nn1,71.3
3,O=c1[nH]cc(F)c(=O)[nH]1 + COC1C(OC(N)=O)C(O)C(Oc2ccc3c(O)c(NC(=O)c4ccc(O)c(CC=C(C)C)c4)c(=O)oc3c2C)OC1(C)C,114
